Broadly, the GI50 is the concentration giving 50% growth inhibition.

Test systems include HCT-15; SF-295; OVCAR-5; HOP-62; UACC-257; SF-268; RXF 393; UO-31; DU-145; MOLT-4; NCI-H226; K562; SNB-75; MDA-MB-435; LOX IMVI; HCT-116; TK-10; NCI-H522; HOP-92.
Assay in all cases: DTP human tumour cell line panel, 48 h

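In this assay, cells in 96-well plates receive the compound at five concentrations for 48 hours. Endpoints are linearly interpolated between the surrounding concentrations. GI50 = concentration required for 50% inhibition of growth.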 Activity calls are given as the source filed them. Cut-off read from the data, not from the text of the source: active = GI50 up to about 1.1 µM and inactive = higher.

`O=C1CC(c2ccc(O)cc2)C2(O1)C(=O)OC(C(O)CO)C2O` (configuration not stated): the concentration for 50% growth inhibition (GI50) in the assay with HCT-15 is over 100 µM; in the assay on SF-295, > 100 µM (inactive); in the assay with OVCAR-5, > 100 µM (inactive); with HOP-62, > 100 µM (inactive); in the assay on UACC-257 it was > 100 µM (inactive); in the assay with SF-268, > 100 µM (inactive). The GI50 in the assay on RXF 393, in the assay with UO-31, in the assay on DU-145, in the assay on MOLT-4, in the assay with NCI-H226 and with K562 was > 100 µM (inactive) in each case. In addition, the GI50 in the assay with SNB-75, in the assay with MDA-MB-435, with LOX IMVI, with HCT-116 and in the assay with TK-10 was > 100 µM (inactive) in each case.
With `O=C1CC[C@@H](S(=O)(=O)c2ccccc2)[C@H](/C=C/c2ccccc2)O1`, the GI50 was over 100 µM with HCT-15; > 100 µM (inactive) with SF-295; > 100 µM (inactive) in the assay on OVCAR-5; > 100 µM (inactive) with HOP-62; > 100 µM (inactive) in the assay on UACC-257; > 100 µM (inactive) with RXF 393. Further, the GI50 in the assay on UO-31, in the assay on MOLT-4, in the assay with NCI-H226, with K562, in the assay with NCI-H522 and with SNB-75 was > 100 µM (inactive) each time. The GI50 with LOX IMVI, with HCT-116 and with TK-10 was > 100 µM (inactive) throughout.
Take `CCSCCCSCCSCC`: the concentration for 50% growth inhibition (GI50) was over 100 µM in the assay on HCT-15; > 100 µM (inactive) in the assay with SF-295; > 100 µM (inactive) with OVCAR-5; > 100 µM (inactive) with HOP-62; > 100 µM (inactive) in the assay on UACC-257; > 100 µM (inactive) with SF-268. In addition, the GI50 in the assay with UO-31 is > 100 µM (inactive); in the assay with DU-145 it was > 100 µM (inactive); in the assay with MOLT-4, 17.2 µM (inactive); in the assay with K562, > 100 µM (inactive); in the assay on NCI-H522, > 100 µM (inactive); with SNB-75, > 100 µM (inactive). The GI50 with MDA-MB-435, with LOX IMVI, with HCT-116 and in the assay on TK-10 was > 100 µM (inactive) each time.
For the compound `CC(=O)Oc1ccc(-c2c(OC(C)=O)c(OC(C)=O)c(-c3ccc(OC(C)=O)c(OC(C)=O)c3)c(OC(C)=O)c2OC(C)=O)cc1`, the GI50 is 17.1 µM in the assay with HCT-15; 6.03 µM (inactive) in the assay on SF-295; 12.5 µM (inactive) in the assay with OVCAR-5; 15.1 µM (inactive) in the assay on UACC-257; 17.7 µM (inactive) with SF-268; 18.2 µM (inactive) in the assay with RXF 393. Moreover, the GI50 in the assay with UO-31 is 15.5 µM (inactive); with DU-145, 16.3 µM (inactive); in the assay on MOLT-4, 20.2 µM (inactive); in the assay on NCI-H226 it was 17.9 µM (inactive); with K562, 21.5 µM (inactive); in the assay on NCI-H522, 5.46 µM (inactive). Moreover, the GI50 is 13.6 µM (inactive) in the assay with SNB-75; 16.9 µM (inactive) in the assay with MDA-MB-435; 16.1 µM (inactive) in the assay on LOX IMVI; 18.8 µM (inactive) in the assay with HCT-116; 15.9 µM (inactive) in the assay on TK-10.
In the case of `COC(=O)Nc1cc(OCCCOC(C)=O)c2[nH]c(C(=O)OC)cc2c1C[C@H](O)CO`, the GI50 was over 100 µM in the assay with HCT-15; > 100 µM (inactive) with SF-295; > 100 µM (inactive) in the assay on OVCAR-5; 11.1 µM (inactive) in the assay with HOP-92; > 100 µM (inactive) in the assay with HOP-62; > 100 µM (inactive) with UACC-257. Also, the GI50 in the assay on UO-31 was > 100 µM (inactive); in the assay with DU-145, > 100 µM (inactive); in the assay on MOLT-4 it was > 100 µM (inactive); with NCI-H226, > 100 µM (inactive); in the assay on NCI-H522 it was 2.94 µM (inactive); with MDA-MB-435, > 100 µM (inactive). Moreover, the GI50 in the assay on LOX IMVI, in the assay on HCT-116 and in the assay on TK-10 was > 100 µM (inactive) throughout.
Turning to `CCOC(=O)/C(C(=O)Nc1ccc(F)cc1)=C(/N)N1CCOCC1`, the GI50 with HCT-15 was over 100 µM; in the assay on SF-295 it was > 100 µM (inactive); in the assay with OVCAR-5, > 100 µM (inactive); in the assay on HOP-62, > 100 µM (inactive); in the assay on UACC-257, > 100 µM (inactive); in the assay with SF-268, > 100 µM (inactive). In addition, the GI50 with RXF 393, in the assay on DU-145, with MOLT-4, with NCI-H226, with K562 and in the assay with NCI-H522 was > 100 µM (inactive) throughout. The GI50 in the assay with SNB-75, in the assay with MDA-MB-435, in the assay with LOX IMVI, in the assay on HCT-116 and with TK-10 was > 100 µM (inactive) each time.
As to `N[C@H](CCC(=O)NCP(=O)(O)O)C(=O)O`, the GI50 is over 100 µM in the assay on HCT-15; 5.33 µM (inactive) in the assay on SF-295; > 100 µM (inactive) with OVCAR-5; > 100 µM (inactive) with HOP-62; > 100 µM (inactive) in the assay on UACC-257; > 100 µM (inactive) in the assay with UO-31. The GI50 is > 100 µM (inactive) in the assay on MOLT-4; > 100 µM (inactive) with K562; > 100 µM (inactive) in the assay with NCI-H522; > 100 µM (inactive) in the assay on MDA-MB-435; > 100 µM (inactive) with HCT-116; 10.5 µM (inactive) with TK-10.
Turning to `CN(C)CCNC(=O)c1cccc(C(=O)Nc2ccccc2)c1[N+](=O)[O-]`, the 50% growth inhibitory concentration (GI50) in the assay with HCT-15 is over 100 µM; with SF-295, > 100 µM (inactive); with OVCAR-5, > 100 µM (inactive); with HOP-62, > 100 µM (inactive); in the assay with UACC-257, > 100 µM (inactive); with SF-268, > 100 µM (inactive). The GI50 with UO-31, in the assay on DU-145, with MOLT-4, in the assay with NCI-H226, with K562 and with NCI-H522 was > 100 µM (inactive) throughout. Moreover, the GI50 was 34.8 µM (inactive) in the assay with SNB-75, > 100 µM (inactive) with MDA-MB-435, > 100 µM (inactive) in the assay with HCT-116 and > 100 µM (inactive) in the assay on TK-10.
On to `O=[N+]([O-])/C(C(Cl)=C(Cl)Cl)=C1/OCCS1`, for which the concentration for 50% growth inhibition (GI50) in the assay with HCT-15 was 21.3 µM; in the assay with SF-295, 33.9 µM (inactive); in the assay on OVCAR-5, 32.4 µM (inactive); in the assay with HOP-62 it was 20.8 µM (inactive); in the assay with UACC-257, 27.7 µM (inactive); in the assay on SF-268, 25.5 µM (inactive). Besides, the GI50 is 19.3 µM (inactive) in the assay on RXF 393; 23.1 µM (inactive) with UO-31; 42.2 µM (inactive) in the assay with DU-145; 17.9 µM (inactive) in the assay on MOLT-4; 30.2 µM (inactive) in the assay on NCI-H226; 30 µM (inactive) with K562. For the same compound, the GI50 with NCI-H522 was 32.4 µM (inactive); with SNB-75 it was 13.9 µM (inactive); with MDA-MB-435 it was 22.6 µM (inactive); with LOX IMVI, 21.4 µM (inactive); in the assay with HCT-116 it was 18 µM (inactive); in the assay on TK-10 it was 25.9 µM (inactive).
In the case of `CC(=O)Oc1ccc2cc(Oc3cc(Cl)c(Cl)cc3Cl)c(=O)oc2c1`, the GI50 is 13.1 µM in the assay with HCT-15; 22.4 µM (inactive) in the assay with SF-295; 18.5 µM (inactive) in the assay with OVCAR-5; 17.8 µM (inactive) in the assay with HOP-92; 17.3 µM (inactive) in the assay on HOP-62; 20.6 µM (inactive) with UACC-257. In addition, the GI50 in the assay with SF-268 was 26.9 µM (inactive); in the assay with RXF 393 it was 14.6 µM (inactive); in the assay on UO-31 it was 13.1 µM (inactive); in the assay on DU-145, 25.3 µM (inactive); in the assay on MOLT-4 it was 11.9 µM (inactive); in the assay with NCI-H226, 16.9 µM (inactive). The GI50 was 13.2 µM (inactive) with K562; 16.7 µM (inactive) in the assay with NCI-H522; 19.6 µM (inactive) with SNB-75; 15.4 µM (inactive) in the assay on LOX IMVI; 14.9 µM (inactive) with HCT-116; 24.8 µM (inactive) in the assay with TK-10.
For `O=C1/C(=C/c2cccc3ccccc23)Cc2ccccc21`, the GI50 in the assay with HCT-15 is 34.9 µM; in the assay on OVCAR-5, 29.2 µM (inactive); with SF-268 it was 22.6 µM (inactive); in the assay with RXF 393 it was 16.7 µM (inactive); in the assay on UO-31, 22.1 µM (inactive); in the assay with MOLT-4, 40.5 µM (inactive). Further, the GI50 is 10.5 µM (inactive) with NCI-H226; 62.4 µM (inactive) with K562; 29.8 µM (inactive) with SNB-75; 34.4 µM (inactive) in the assay on LOX IMVI; 49.2 µM (inactive) in the assay with TK-10.
Turning to `COC(=O)CCCc1ccc2c(c1)CCC2`, the GI50 with HCT-15 is over 100 µM; in the assay with SF-295 it was > 100 µM (inactive); in the assay on OVCAR-5, > 100 µM (inactive); with HOP-92, > 100 µM (inactive); with HOP-62, > 100 µM (inactive); in the assay on UACC-257, > 100 µM (inactive). Moreover, the GI50 in the assay on SF-268 is > 100 µM (inactive); in the assay on UO-31 it was > 100 µM (inactive); in the assay with DU-145, > 100 µM (inactive); in the assay on MOLT-4 it was > 100 µM (inactive); with NCI-H226, > 100 µM (inactive); in the assay with NCI-H522, 92.3 µM (inactive). For the same compound, the GI50 in the assay with SNB-75, in the assay with MDA-MB-435, in the assay on LOX IMVI, in the assay on HCT-116 and in the assay with TK-10 was > 100 µM (inactive) in each case.
Regarding `COc1ccc2c(c1)CC[C@@H]1[C@@H]2CC[C@]2(C)C(=O)/C(=C/c3ccc(C#N)cc3)C[C@@H]12`, the GI50 in the assay on HCT-15 was over 100 µM; in the assay on SF-295, 81.3 µM (inactive); with OVCAR-5 it was > 100 µM (inactive); in the assay on HOP-62 it was 97.1 µM (inactive); in the assay with UACC-257, > 100 µM (inactive); in the assay on SF-268, > 100 µM (inactive). The GI50 with RXF 393, in the assay on UO-31, with DU-145, in the assay with MOLT-4, in the assay on NCI-H226 and with K562 was > 100 µM (inactive) each time. Further, the GI50 with NCI-H522, with SNB-75, in the assay on MDA-MB-435, in the assay on LOX IMVI, in the assay on HCT-116 and in the assay on TK-10 was > 100 µM (inactive) throughout.
